What was measured:
Assay type in all cases: in vivo
ob/ob mice [1] = test: Fasting blood glucose in ob/ob mice, 4 week IP treatment; settings: ob/ob mice fasted overnight, 3 mg/kg IP twice daily for 4 weeks, vs vehicle
Procedure: (§1) In vivo studies were conducted to observe the effect of MCR-4 agonists on energy intake, body weight, hyperinsulinemia, and glucose levels. All studies were conducted with male-9–10 week old ob/ob mice which display early onset of obesity, insulin resistance and diabetes due to leptin deficiency. Mice were acclimated in the facility for 1 week before studies and are caged individually. Vehicle-treated (control) and drug treated mice studies were always run in parallel. In multi-day studies, mice (8–15 per group) were monitored for baseline body weight, fasting levels of glucose, insulin, blood lipids and energy expenditure and then injected twice daily (9 a.m. and 5 p.m.) with 3 mg/kg of the MC4-R agonist 4-[(N-cyclohexyl-3,5-dimethyl-piperazine-1-carboximidoyl)-amino]-N-[2-(2,4-dichlorophenyl)-ethyl]-benzamide for 4 weeks. Body weight as well as food and water intake were monitored daily. […] Energy expenditure (resting metabolic rate, i.e., O2 consumption and CO2 production) were monitored in air tight chambers at the end of the study on fed animals. O2 consumption and CO2 production were measured using Oxymax systems (Columbus Instruments). […] Blood glucose and oral glucose tolerance were measured using a glucose monitor (Onetouch sold by Lifescan). Free fatty acids were measured using an non-esterified free fatty acids enzymatic assay (Waco Chemicals). […]

ob/ob mice [2] = test: Free fatty acid levels in ob/ob mice; settings: ob/ob mice fasted overnight, drug treated IP vs vehicle
Procedure: as §1

ob/ob mice [3] = test: Oral glucose tolerance test (OGTT) in ob/ob mice at end of study; settings: overnight fasted ob/ob mice at end of 4 week study, oral glucose load, vs vehicle
Procedure: as §1

ob/ob mice [4] = test: Food intake in ob/ob mice, 4 week IP treatment; settings: 3 mg/kg IP twice daily for 4 weeks, vs vehicle
Procedure: as §1

ob/ob mice [5] = test: Serum insulin levels after single IP dosing in ob/ob mice; settings: overnight fasted ob/ob mice
Procedure: as §1

ob/ob mice [6] = test: Body weight in ob/ob mice, 4 week IP treatment; settings: 3 mg/kg IP twice daily for 4 weeks
Procedure: as §1

CC1CN(C(=NC2CCCCC2)Nc2ccc(C(=O)NCCc3ccc(Cl)cc3Cl)cc2)CC(C)N1 (stereo not shown) [4-[(N-cyclohexyl-3,5-dimethyl-piperazine-1-carboximidoyl)-amino]-N-[2-(2,4-dichlorophenyl)-ethyl]-benzamide]
decrease in fasting blood glucose levels (ob/ob mice [1]): 47% | decrease in free fatty acid (FFA) levels (ob/ob mice [2]): 50% | decrease of the area under the curve of glucose in OGTT (ob/ob mice [3]): 45% | food intake (ob/ob mice [4]): significant reduction in food intake | decrease of serum insulin levels relative to vehicle (ob/ob mice [5]; one hour after single IP dosing of 1 mg/kg): 27% | decrease of serum insulin levels relative to vehicle (ob/ob mice [5]; one hour after single IP dosing of 3 mg/kg): 55% | body weight less than the vehicle treated mice at the end of the study (ob/ob mice [6]): 19%
